According to patent US9850225B2, “Compounds useful as immunomodulators” (BRISTOL-MYERS SQUIBB COMPANY, priority 2014, dated 2017):

Each compound was assayed against PD-1/PD-L1 interaction (PD-1-Ig / PD-L1-His) (Homo sapiens (Human), UniProt Q9NZQ7) (assay: PD-1/PD-L1 Homogenous Time-Resolved Fluorescence (HTRF) binding assay). Conditions: PD-1/PD-L1 HTRF binding assay; numeric value; read-out: Range or IC50.
Method in brief: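 HTRF detection used 1 nM europium-cryptate anti-Ig and 20 nM APC anti-His. Compounds first saw 10 nM PD-L1-His for 15 min, and 20 nM PD-1-Ig was then added for another 15 min. Buffer was dPBS plus 0.1% BSA and 0.05% Tween-20. All concentrations are final.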

PD-1/PD-L1 interaction (PD-1-Ig / PD-L1-His), sequence (Q9NZQ7 other isoform, or with tags, fused parts or gaps): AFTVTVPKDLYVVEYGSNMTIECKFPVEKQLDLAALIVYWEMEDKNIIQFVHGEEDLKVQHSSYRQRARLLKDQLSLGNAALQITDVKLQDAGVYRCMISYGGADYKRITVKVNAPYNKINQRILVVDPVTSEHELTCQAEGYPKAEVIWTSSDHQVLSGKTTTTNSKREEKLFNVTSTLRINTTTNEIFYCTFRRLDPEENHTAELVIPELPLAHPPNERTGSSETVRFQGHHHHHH

IC50 [µM] | Structure (SMILES)
0.00554 | Cc1c(COc2cc(OCc3cncc(C#N)c3)c(CN[C@H](CC(N)=O)C(=O)O)cc2Cl)cccc1-c1ccc2c(c1)OCCO2 [Example 3024, (R)-4-amino-2-((5-chloro-2-((5-cyanopyridin-3-yl)methoxy)-4-((3-(2,3-dihydrobenzo[b][1,4]dioxin-6-yl)-2-methylbenzyl)oxy)benzyl)amino)-4-oxobutanoic acid]

Same assay, conditions: PD-1/PD-L1 HTRF binding assay; value given as range class; read-out: Range or IC50

IC50 [µM] | Structure (SMILES)
0.1 to 20 | COc1cc(COc2cc(OCc3cccc(-c4ccc5c(c4)OCCO5)c3C)c(Cl)cc2CO)ccn1 [Example 3016, (5-chloro-4-{[3-(2,3-dihydro-1,4-benzodioxin-6-yl)-2-methylphenyl]methoxy}-2-[(2-methoxypyridin-4-yl)methoxy]phenyl)methanol]
0.0006 to 0.01 | Cc1c(COc2cc(OCc3ccnc(C(=O)N(C)C)c3)c(CN[C@@](C)(CO)C(=O)O)cc2Cl)cccc1-c1ccc2c(c1)OCCO2 [Example 3018, (S)-2-((5-chloro-4-((3-(2,3-dihydrobenzo[b][1,4]dioxin-6-yl)-2-methylbenzyl)oxy)-2-((2-(dimethylcarbamoyl)pyridin-4-yl)methoxy)benzyl)amino)-3-hydroxy-2-methylpropanoic acid]
0.1 to 20 | Cc1c(COc2cc(OCc3ccnc(C(=O)N(C)C)c3)c(CO)cc2Cl)cccc1-c1ccc2c(c1)OCCO2 [Example 3019, 4-(4-chloro-5-{[3-(2,3-dihydro-1,4-benzodioxin-6-yl)-2-methylphenyl]methoxy}-2-(hydroxymethyl)phenoxymethyl)-N,N-dimethylpyridine-2-carboxamide]
0.1 to 20 | Cc1c(COc2cc(OCc3cccc(S(C)(=O)=O)c3)c(C=O)cc2Cl)cccc1-c1ccc2c(c1)OCCO2 [Example 3020, 5-chloro-4-((3-(2,3-dihydrobenzo[b][1,4]dioxin-6-yl)-2-methylbenzyl)oxy)-2-((3-(methylsulfonyl)benzyl)oxy)benzaldehyde]
0.1 to 20 | COc1ccc(C(=O)O)cc1COc1cc(OCc2cccc(-c3ccc4c(c3)OCCO4)c2C)c(Cl)cc1CN1CCCC[C@H]1C(=O)O [Example 3027, (S)-1-(2-((5-carboxy-2-methoxybenzyl)oxy)-5-chloro-4-((3-(2,3-dihydrobenzo[b][1,4]dioxin-6-yl)-2-methylbenzyl)oxy)benzyl)piperidine-2-carboxylic acid]
0.1 to 20 | Cc1c(COc2cc(OCc3ccccc3)c(CN3CCCC[C@H]3C(=O)O)cc2Cl)cccc1-c1ccc2c(c1)OCCO2 [Example 3028, (S)-1-(2-(benzyloxy)-5-chloro-4-((3-(2,3-dihydrobenzo[b][1,4]dioxin-6-yl)-2-methylbenzyl)oxy)benzyl)piperidine-2-carboxylic acid]

Further lines, the compound ahead of its results:

Structure (SMILES) | IC50 [µM]
COc1cc(COc2cc(OCc3cccc(-c4ccc5c(c4)OCCO5)c3C)c(Cl)cc2CN[C@@](C)(CO)C(=O)O)cc(Cl)n1 [Example 3014, (S)-2-((5-chloro-2-((2-chloro-6-methoxypyridin-4-yl)methoxy)-4-((3-(2,3-dihydrobenzo[b][1,4]dioxin-6-yl)-2-methylbenzyl)oxy)benzyl)amino)-3-hydroxy-2-methylpropanoic acid] | 0.0006 to 0.01
COc1cc(COc2cc(OCc3cccc(-c4ccc5c(c4)OCCO5)c3C)c(Cl)cc2CN[C@@](C)(CO)C(=O)O)ccn1 [Example 3015, (2S)-2-{[(5-chloro-4-{[3-(2,3-dihydro-1,4-benzodioxin-6-yl)-2-methylphenyl]methoxy}-2-[(2-methoxypyridin-4-yl)methoxy]phenyl)methyl]amino}-3-hydroxy-2-methylpropanoic acid] | 0.0006 to 0.01
COc1cc(COc2cc(OCc3cccc(-c4ccc5c(c4)OCCO5)c3C)c(Cl)cc2CN2CCCC[C@H]2C(=O)O)ccn1 [Example 3017, (S)-1-(5-chloro-4-((3-(2,3-dihydrobenzo[b][1,4]dioxin-6-yl)-2-methylbenzyl)oxy)-2-((2-methoxypyridin-4-yl)methoxy)benzyl)piperidine-2-carboxylic acid] | 0.01 to 0.1
Cc1c(COc2cc(OCc3cccc(S(C)(=O)=O)c3)c(CN[C@@](C)(CO)C(=O)O)cc2Cl)cccc1-c1ccc2c(c1)OCCO2 [Example 3021, (S)-2-((5-chloro-4-((3-(2,3-dihydrobenzo[b][1,4]dioxin-6-yl)-2-methylbenzyl)oxy)-2-((3-(methylsulfonyl)benzyl)oxy)benzyl)amino)-3-hydroxy-2-methylpropanoic acid] | 0.0006 to 0.01
Cc1c(COc2cc(OCc3cncc(C#N)c3)c(CN[C@@H](CC(N)=O)C(=O)O)cc2Cl)cccc1-c1ccc2c(c1)OCCO2 [Example 3022, (S)-4-amino-2-((5-chloro-2-((5-cyanopyridin-3-yl)methoxy)-4-((3-(2,3-dihydrobenzo[b][1,4]dioxin-6-yl)-2-methylbenzyl)oxy)benzyl)amino)-4-oxobutanoic acid] | 0.0006 to 0.01
Cc1c(COc2cc(OCc3cncc(C#N)c3)c(CN[C@@H](CC(=O)O)C(=O)O)cc2Cl)cccc1-c1ccc2c(c1)OCCO2 [Example 3023, (S)-2-((5-chloro-2-((5-cyanopyridin-3-yl)methoxy)-4-((3-(2,3-dihydrobenzo[b][1,4]dioxin-6-yl)-2-methylbenzyl)oxy)benzyl)amino)succinic acid] | 0.0006 to 0.01
Cc1c(COc2cc(OCc3cncc(C#N)c3)c(CN[C@H](CC(=O)O)C(=O)O)cc2Cl)cccc1-c1ccc2c(c1)OCCO2 [Example 3025, (R)-2-((5-chloro-2-((5-cyanopyridin-3-yl)methoxy)-4-((3-(2,3-dihydrobenzo[b][1,4]dioxin-6-yl)-2-methylbenzyl)oxy)benzyl)amino)succinic acid] | 0.0006 to 0.01
COC(=O)c1ccc(OC)c(COc2cc(OCc3cccc(-c4ccc5c(c4)OCCO5)c3C)c(Cl)cc2CN2CCCC[C@H]2C(=O)O)c1 [Example 3026, (S)-1-(5-chloro-4-((3-(2,3-dihydrobenzo[b][1,4]dioxin-6-yl)-2-methylbenzyl)oxy)-2-((2-methoxy-5-(methoxycarbonyl)benzyl)oxy)benzyl)piperidine-2-carboxylic acid] | 0.1 to 20
Cc1c(COc2cc(OCC(N)=O)c(CN[C@@H](CO)C(=O)O)cc2Cl)cccc1-c1ccc2c(c1)OCCO2 [Example 3030, (S)-2-((2-(2-amino-2-oxoethoxy)-5-chloro-4-((3-(2,3-dihydrobenzo[b][1,4]dioxin-6-yl)-2-methylbenzyl)oxy)benzyl)amino)-3-hydroxypropanoic acid] | 0.0006 to 0.01

Same assay, conditions: PD-1/PD-L1 HTRF binding assay; μM; read-out: Range or IC50

IC50 [µM] | Structure (SMILES)
2.35 | COc1ccccc1COc1cc(OCc2cccc(-c3ccc4c(c3)OCCO4)c2C)c(Cl)cc1CN1CCCC[C@H]1C(=O)O [Example 3029, (S)-1-(5-chloro-4-((3-(2,3-dihydrobenzo[b][1,4]dioxin-6-yl)-2-methylbenzyl)oxy)-2-((2-methoxybenzyl)oxy)benzyl)piperidine-2-carboxylic acid]
